Like-named read-outs stand apart in the source and are kept apart here.
Columns and labels:
[1] = test system: rat chronic constriction injury (CCI) model of neuropathic pain; assay: Rat chronic constriction injury (CCI) model of neuropathic pain; type: in vivo; conditions: IP, dose not given; 50% paw withdrawal threshold, von Frey
Description: To induce allodynia, male Sprague-Dawley rats underwent chronic constriction injury (CCI) to the sciatic nerve as described by Bennett and Xie, Pain 1988; 33(1):87-107. The plantar surface of the hind paws was stimulated with von Frey filaments (Stoelting) to induce a withdrawal response by blinded personnel. The bending force of fiber required to induce a 50% withdrawal response was calculated following CCI surgery (pre-dosing baseline). N=5-6 allodynic rats received a single IP or oral administration of test compounds or vehicle. Two hours post-dosing, 50% paw withdrawal threshold was determined again by blinded testers using von Frey filaments. The 50% withdrawal threshold prior to CCI surgery, pre-dosing (10 days post-surgery), and 2 hours post-dosing are plotted.
For selected compounds multi-day studies were perfumed with pre-determined schedules for dosing and withdrawal threshold assessments.

[2] = biological target: T1, catalytic domain of phosphodiesterase 4B enzyme cloned from human brain (Homo sapiens, UniProt Q07343); assay: PDE4 inhibition assay (PDELight); type: biochemical; conditions: for IC50: 5 uM cAMP, read-out: PDE 4 Inhibition (IC50 in μM)
T1 construct: the catalytic domain of phosphodiesterase 4B enzyme; purchased Scottish Biomedical
Description: In a 96-well plate, the catalytic domain of phosphodiesterase 4B enzyme (40 mU/well) cloned from human brain (Scottish Biomedical) was combined with 5 uM cAMP substrate (Sigma). […] Using a PDELight® kit (Cambrex), the amount of AMP produced in the reaction from the hydrolysis of cAMP was quantified using PDELight AMP Detection Reagent which converts the AMP directly to ATP. The assay uses luciferase, which catalyses the formation of light from the newly formed ATP and luciferin. […] IC50 calculations were plotted using a nonlinear regression curve fit.

[3] = biological target: T2, recombinant human phosphodiesterase 10A1 enzyme (Homo sapiens, UniProt Q9Y233); assay: PDE10 inhibition assay (PDELight); type: biochemical; conditions: for IC50: 1 uM cAMP, read-out: PDE 10 Inhibition (IC50 in μM); for PDE-10 inhibition (in words): Table 2
T2 construct: purchased BPS Biosciences; host or cells: Baculovirus infected Sf9 cells
Description: In a 96-well plate, recombinant human phosphodiesterase 10A1 enzyme (10 U/well) expressed in Baculovirus infected Sf9 cells (BPS Biosciences) was combined with 1 uM cAMP substrate (Sigma). […] Using a PDELight® kit (Cambrex), the amount of AMP produced in the reaction from the hydrolysis of cAMP was quantified using PDELight AMP Detection Reagent which converts the AMP directly to ATP. The assay uses luciferase, which catalyses the formation of light from the newly formed ATP and luciferin. The luminescence was read on a Victor Light 1420 luminometer. IC50 calculations were plotted using a nonlinear regression curve fit.

[4] = test system: at least one of JNK 3 or JNK 2 and at least one of PDE 10 or PDE 4; assay: Dual inhibition (phosphodiesterase and JNK); type: biochemical, human; conditions: IC50 JNK 3 or JNK 2 less than about 5.00 μM and PDE 10 or PDE 4 less than about 20.0 or 30.0 μM
Description: (§1) In a 96-well plate, recombinant full length human JNK2 or JNK3 enzyme (40 ng) expressed in Sf21 cells (Upstate) was incubated with the substrate ATF2 (3 uM) for 1 hour in the presence of 10 uM ATP. The amount of ATP depletion by the JNK enzyme is measured in the presence or absence of test compounds (0-30 uM). The ATP levels were quantified using luciferase with luminescence read on a Victor Light 1420 luminometer. IC50 calculations were plotted using a nonlinear regression curve fit.
In a 96-well plate, the catalytic domain of phosphodiesterase 4B enzyme (40 mU/well) cloned from human brain (Scottish Biomedical) was combined with 5 uM cAMP substrate (Sigma). Test compounds (0-30 uM) or vehicle (0.5% DMSO) were added to the enzyme/substrate and incubated 1 hour. Using a PDELight® kit (Cambrex), the amount of AMP produced in the reaction from the hydrolysis of cAMP was quantified using PDELight AMP Detection Reagent which converts the AMP directly to ATP. The assay uses luciferase, which catalyses the formation of light from the newly formed ATP and luciferin. The luminescence was read on a Victor Light 1420 luminometer. IC50 calculations were plotted using a nonlinear regression curve fit.
In a 96-well plate, recombinant human phosphodiesterase 10A1 enzyme (10 U/well) expressed in Baculovirus infected Sf9 cells (BPS Biosciences) was combined with 1 uM cAMP substrate (Sigma). Test compounds (0-30 uM) or vehicle (0.5% DMSO) were added to the enzyme/substrate and incubated 1 hour. Using a PDELight® kit (Cambrex), the amount of AMP produced in the reaction from the hydrolysis of cAMP was quantified using PDELight AMP Detection Reagent which converts the AMP directly to ATP. The assay uses luciferase, which catalyses the formation of light from the newly formed ATP and luciferin. The luminescence was read on a Victor Light 1420 luminometer. IC50 calculations were plotted using a nonlinear regression curve fit.

[5] = biological target: T3, recombinant full length human JNK3 enzyme (Homo sapiens, UniProt P53779); assay: JNK 3 inhibition assay (ATP depletion, luciferase); type: biochemical; conditions: for IC50: 10 uM ATP, ATF2 substrate; for JNK-3 inhibition (in words): see Table 2
T3 construct: recombinant full length human JNK2 or JNK3 enzyme; purchased Upstate; host or cells: Sf21 cells
Description: as §1, with “The amount of ATP depletion by the JNK enzyme is measured in the presence or absence of test compounds (0-30 uM).” left out

[6] = biological target: T4, recombinant full length human JNK2 enzyme (Homo sapiens, UniProt P45984); assay: JNK 2 inhibition assay (ATP depletion, luciferase); type: biochemical
T4 construct: recombinant full length human JNK2 or JNK3 enzyme; purchased Upstate; host or cells: Sf21 cells
Description: In a 96-well plate, recombinant full length human JNK2 or JNK3 enzyme (40 ng) expressed in Sf21 cells (Upstate) was incubated with the substrate ATF2 (3 uM) for 1 hour in the presence of 10 uM ATP. […] IC50 calculations were plotted using a nonlinear regression curve fit.

[7] = test system: Mouse BV-2 microglial cells; assay: BV-2 glial cell assay (TNF-α and MCP-1 by Luminex); type: cell-based; conditions: for EC50: Mus musculus, BV-2, LPS and IFN-γ activated, 20 hours
Description: Mouse BV-2 microglial cells were seeded on 96-well plates at a concentration of 3×10^4 cells/well. Cells were activated with 100 ng/mL LPS and IFN-γ (100 ng/mL) in the presence or absence of test compounds (0-30 uM). Following incubation for 20 hours, cells were spun down and supernatant collected. The supernatant was analyzed via Luminex for the presence of TNF-α and MCP-1.

[8] = read-out: IC50 value based upon a JNK 2 inhibition assay (range given)
[9] = 10 uM ATP, ATF2 substrate, read-out: JNK 2 Inhibition (IC50 in μM)

T4 sequence (P45984 whole entry): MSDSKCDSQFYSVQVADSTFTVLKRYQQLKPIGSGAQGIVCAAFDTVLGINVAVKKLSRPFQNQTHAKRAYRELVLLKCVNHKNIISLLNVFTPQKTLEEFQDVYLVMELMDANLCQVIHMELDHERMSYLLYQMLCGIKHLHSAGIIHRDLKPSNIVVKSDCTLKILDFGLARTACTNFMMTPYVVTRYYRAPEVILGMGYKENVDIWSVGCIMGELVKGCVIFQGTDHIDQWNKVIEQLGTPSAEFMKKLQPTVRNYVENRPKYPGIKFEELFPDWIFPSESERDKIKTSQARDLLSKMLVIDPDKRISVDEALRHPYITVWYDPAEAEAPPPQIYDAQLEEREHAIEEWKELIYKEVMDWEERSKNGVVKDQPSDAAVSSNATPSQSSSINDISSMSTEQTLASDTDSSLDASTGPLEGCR
T3 sequence (P53779 whole entry): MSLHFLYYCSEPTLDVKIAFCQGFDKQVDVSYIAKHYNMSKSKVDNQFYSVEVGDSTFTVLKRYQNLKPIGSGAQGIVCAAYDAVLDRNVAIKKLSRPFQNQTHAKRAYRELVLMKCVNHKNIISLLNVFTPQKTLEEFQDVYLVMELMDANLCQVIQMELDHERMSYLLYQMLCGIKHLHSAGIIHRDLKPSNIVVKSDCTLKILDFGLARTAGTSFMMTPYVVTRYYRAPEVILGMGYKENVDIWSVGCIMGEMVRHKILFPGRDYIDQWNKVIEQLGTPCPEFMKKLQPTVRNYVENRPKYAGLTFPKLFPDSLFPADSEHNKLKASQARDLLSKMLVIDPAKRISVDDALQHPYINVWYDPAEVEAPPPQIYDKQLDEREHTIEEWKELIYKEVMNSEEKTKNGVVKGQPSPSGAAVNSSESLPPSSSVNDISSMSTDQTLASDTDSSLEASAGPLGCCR
T2 sequence (Q9Y233 1-779 isoform Q9Y233-1): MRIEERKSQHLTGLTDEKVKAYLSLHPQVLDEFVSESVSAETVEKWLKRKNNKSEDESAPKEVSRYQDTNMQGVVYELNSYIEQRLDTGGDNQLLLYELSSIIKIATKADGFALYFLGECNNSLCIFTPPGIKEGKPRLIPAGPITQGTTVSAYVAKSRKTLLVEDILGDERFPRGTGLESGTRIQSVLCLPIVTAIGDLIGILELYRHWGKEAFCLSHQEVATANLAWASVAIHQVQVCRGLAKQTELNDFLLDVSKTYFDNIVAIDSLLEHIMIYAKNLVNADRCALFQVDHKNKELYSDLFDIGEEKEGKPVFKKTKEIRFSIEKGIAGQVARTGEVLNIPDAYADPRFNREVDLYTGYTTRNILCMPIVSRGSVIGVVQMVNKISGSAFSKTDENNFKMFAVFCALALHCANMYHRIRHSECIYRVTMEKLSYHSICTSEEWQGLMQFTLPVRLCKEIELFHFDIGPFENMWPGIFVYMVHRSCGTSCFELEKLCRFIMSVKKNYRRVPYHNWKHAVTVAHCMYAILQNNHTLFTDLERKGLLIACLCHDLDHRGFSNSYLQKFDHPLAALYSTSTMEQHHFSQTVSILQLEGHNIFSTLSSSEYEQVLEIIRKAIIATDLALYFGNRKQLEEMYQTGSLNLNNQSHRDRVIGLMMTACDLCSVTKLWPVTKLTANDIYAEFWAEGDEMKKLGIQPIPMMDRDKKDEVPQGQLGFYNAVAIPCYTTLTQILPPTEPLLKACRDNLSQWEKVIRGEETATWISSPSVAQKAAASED
T1 sequence (Q07343 330-659 limits assumed): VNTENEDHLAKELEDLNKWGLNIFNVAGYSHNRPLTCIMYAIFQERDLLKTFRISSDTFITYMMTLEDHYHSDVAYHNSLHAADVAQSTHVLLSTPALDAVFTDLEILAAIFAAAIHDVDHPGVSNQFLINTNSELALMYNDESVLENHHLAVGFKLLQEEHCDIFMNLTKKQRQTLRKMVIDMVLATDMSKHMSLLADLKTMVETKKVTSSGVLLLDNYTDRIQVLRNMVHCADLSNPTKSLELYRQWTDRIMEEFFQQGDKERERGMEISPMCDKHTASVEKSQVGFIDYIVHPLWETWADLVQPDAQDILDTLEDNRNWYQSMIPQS

Row | Structure (SMILES) | IP CCI efficacy (Change in grams) [1] | PDE-4 inhibition (in words) [2] | IC50 [2] | IC50 [3] | PDE-10 inhibition (in words) [3] | dual inhibition (phosphodiesterase and JNK) [4] | IC50 [5] | JNK-3 inhibition (in words) [5] | IC50 [6, 8] | IC50 [6, 9] | EC50 ([7]; read-out: MCP-1 BV-2 (EC50 in μM)) | EC50 ([7]; read-out: TNF-a BV-2 (EC50 in μM)) | inhibiting glial cell activation (TNF-α and/or MCP-1) ([7]; Table 3)
1 | CC(C)c1nn2ccccc2c1-c1ccnc(NCCCO)n1 [AV1134, 3-(4-(2-isopropylpyrazolo[1,5-a]pyridin-3-yl)pyrimidin-2-ylamino)propan-1-ol] | 0 grams | particularly effective | 6.2 µM | 9.3 µM | particularly effective | effective dual inhibitors | 8.2 µM | – | – | – | – | – | –
2 | CC(C)c1nn2ccccc2c1-c1ccnc(NC2CC2)n1 [AV1136, N-cyclopropyl-4-(2-isopropylpyrazolo[1,5-a]pyridin-3-yl)pyrimidin-2-amine] | 0 grams | particularly effective | 4.5 µM | 16.8 µM | particularly effective | effective dual inhibitors | 1.5 µM | particularly effective | – | – | – | – | –
3 | CC(C)c1nn2ccccc2c1-c1ccnc(NC2CCC2)n1 [AV1156, N-cyclobutyl-4-(2-isopropylpyrazolo[1,5-a]pyridin-3-yl)pyrimidin-2-amine] | 0.33 grams | particularly effective | 8.6 µM | 20 µM | – | effective dual inhibitors | 3 µM | – | 0.01 to 2 µM | – | – | – | –
4 | CC(C)CNc1nccc(-c2cnn3ccccc23)n1 [AV1167, N-isobutyl-4-(pyrazolo[1,5-a]pyridin-3-yl)pyrimidin-2-amine] | – | – | 13 µM | 37 µM | – | effective dual inhibitors | 0.7 µM | particularly effective | 0.01 to 2 µM | 1.5 µM | – | – | –
5 | Cc1cccc2c(-c3ccnc(NC(C)C)n3)c(C(C)C)nn12 [AV1168, N-isopropyl-4-(2-isopropyl-7-methylpyrazolo[1,5-a]pyridin-3-yl)pyrimidin-2-amine] | 0 grams | particularly effective | 2.9 µM | 59 µM | – | effective dual inhibitors | 2.2 µM | – | – | 8.1 µM | – | – | –
6 | CCCCc1nn2ccccc2c1-c1ccnc(NC(C)C)n1 [AV1174, 4-(2-butylpyrazolo[1,5-a]pyridin-3-yl)-N-isopropylpyrimidin-2-amine] | – | particularly effective | 7.9 µM | 31 µM | – | effective dual inhibitors | 1.1 µM | particularly effective | 0.01 to 2 µM | 1.2 µM | – | – | –
7 | COCc1nn2ccccc2c1-c1ccnc(NC(C)C)n1 [AV1175, N-isopropyl-4-(2-(methoxymethyl)pyrazolo[1,5-a]pyridin-3-yl)pyrimidin-2-amine] | – | particularly effective | 8.6 µM | > 100 µM | – | effective dual inhibitors | 1.2 µM | particularly effective | – | 4.5 µM | – | – | –
8 | CC(C)Nc1nccc(-c2c(-c3ccccc3)nn3ccccc23)n1 [AV1176, N-isopropyl-4-(2-phenylpyrazolo[1,5-a]pyridin-3-yl)pyrimidin-2-amine] | – | particularly effective | 3.8 µM | > 100 µM | – | effective dual inhibitors | 0.1 µM | particularly effective | 0.01 to 2 µM | 0.1 µM | – | – | –
9 | CC(C)Cc1nn2ccccc2c1-c1ccnc(NC(C)C)n1 [AV1177, 4-(2-isobutylpyrazolo[1,5-a]pyridin-3-yl)-N-isopropylpyrimidin-2-amine] | – | particularly effective | 6.4 µM | > 100 µM | – | effective dual inhibitors | 1.8 µM | particularly effective | – | 3 µM | – | – | –
10 | Cc1nn2ccccc2c1-c1ccnc(NC2CCCC2)n1 [AV1182, N-cyclopentyl-4-(2-methylpyrazolo[1,5-a]pyridin-3-yl)pyrimidin-2-amine] | – | particularly effective | 5.7 µM | > 100 µM | – | effective dual inhibitors | 0.9 µM | particularly effective | – | – | – | – | –
11 | Clc1cccc(-c2nn3ccccc3c2-c2ccnc(NC3CCCC3)n2)c1 [AV1194, 4-(2-(3-chlorophenyl)pyrazolo[1,5-a]pyridin-3-yl)-N-cyclopentylpyrimidin-2-amine] | – | particularly effective | 5.2 µM | > 100 µM | – | effective dual inhibitors | 0.08 µM | particularly effective | 0.01 to 2 µM | 0.1 µM | 1.2 µM | 0.03 µM | Particularly effective
